Results published in ChEMBL document CHEMBL3046107, “A new isoflavone from Blepharis ciliaris of an Egyptian origin” (Med Chem Res, 2013).
Activity calls are given as the source filed them. No cut-off for these calls is given here.

System: Radical scavenging activity
Experiment: Antioxidant activity assessed as DPPH radical scavenging activity at 20 uM after 2 min by spectrophotometric analysis
Type: functional

Structure (SMILES)	Activity
O=C(/C=C/c1ccc(O)c(O)c1)OC[C@H]1O[C@@H](Oc2cc(O)c3c(c2)O[C@H](c2ccc(O)cc2)CC3=O)[C@H](O)[C@@H](O)[C@@H]1O	inactive
O=C(/C=C/c1ccc(O)c(O)c1)OC[C@H]1O[C@@H](Oc2cc(O)c3c(=O)c(-c4ccc(O)cc4)coc3c2)[C@H](O)[C@@H](O)[C@@H]1O	inactive
